Data on one molecule can be found in JPH1029937A, “メフェナム酸水溶液製剤” (KOBAYASHI SEIYAKU KOGYO KK, priority 1996, dated 1997).

The nature of data set [1]: Solubility of mefenamic acid in water and various aqueous solutions. The data set is classed as physicochemical. Conditions: for solubility: aqueous solution containing polyvinylpyrrolidone and basic substance.
For data set [2] the following is noted: in words, background statement; cited from earlier work.

SMILES strings stand for the structures.

For the molecule `Cc1cccc(Nc2ccccc2C(=O)O)c1C` [メフェナム酸, N−2,3−キシリルアントラニル酸], the results for the solubility result in data set [1] and in data set [1] (with nonionic surfactant of HLB 14-15 added) were “高い溶解性を示し” and “溶解性が飛躍的に向上する”, respectively. The solubility and stability entry in data set [1] (aqueous solution of polyvinylpyrrolidone and surfactant mixture, approximately pH 7.0-8.0) was “良好な溶解性と安定性を示す”. Besides, the solubility in water entry in data set [2] is given as “水に極めて溶けにくく”.
